Results as given in US20240238300A1, “TREATMENT METHODS FOR SUBJECTS WITH CANCER HAVING AN ABERRATION IN EGFR AND/OR HER2” (TAIHO PHARMACEUTICAL CO., LTD., priority 2021, published 2024).

Assays:
[1] = target: T1, human P-gp (Homo sapiens, UniProt P08183); assay: inhibitory effect on human P-gp, bidirectional transport of [^3H]digoxin; assay type: in vitro ADME
T1 construct: expressed in transfected cells; host or cells: LLC-PK1 (porcine kidney) cells expressing human P-gp; mock/LLC-PK1 as control
Description: Inhibitory effect of Compound (1) on human P-gp. […] The net flux ratios at the Compound (1) concentrations of 0.01, 0.1, 1, 5, 10, and 100 μmol/L were 5.6±1.0, 5.5±0.7, 6.5±0.5, 2.8±0.5, 1.3±0.2, and 1.0±0.1, respectively. The percent of controls at the Compound (1) concentrations at 0.01, 0.1, 1, 5, 10, and 100 μmol/L were 112%, 110%, 135%, 45%, 7%, and 1%, respectively.

[2] = tested on: NCI-N87 human gastric carcinoma xenografts; assay: antitumor effect in nude mice bearing NCI-N87 xenografts; assay type: in vivo; conditions: 12.5 mg/kg/day orally once daily 14 days, Day 15
Protocol: The antitumor effect of Compound (1) was evaluated in nude mice bearing HER2-overexpressing NCI-N87 human gastric carcinoma xenografts. Compound (1) dosing suspensions using 0.5% w/v hydroxypropyl methylcellulose (HPMC) as vehicle were prepared at 4 dose levels (3.1, 6.3, 12.5, and 25.0 mg/kg/day) and administered orally once daily for 14 days. In addition, the antitumor effect of poziotinib, which is a pan-ErbB inhibitor and currently under clinical development for the treatment of cancer with epidermal growth factor receptor containing HER2 exon 20 insertion mutations, was also evaluated using this model. Poziotinib was administered orally once daily for 14 days at 2 dose levels (0.5 or 1.0 mg/kg/day). The control group received 0.5% w/v HPMC once daily for 14 days.

[3] = tested on: MDA-MB-175VII cells (DOC4-NRG1 fusion); assay: growth inhibitory effect in NRG1 fusion-driven cancer cell line (GI50); assay type: cell-based; conditions: Homo sapiens, mean of 3-4 independent experiments
Protocol: GI50 values were also determined for currently approved EGFR/HER2 tyrosine kinase inhibitors: afatinib, osimertinib, tucatinib, lapatinib, and neratinib, and one investigational drug (poziotinib). Mean values were determined from 3-4 independent experiments.

[4] = tested on: intracranial NCI-N87-luc human gastric carcinoma xenografts; assay: intracranial antitumor effect with various dosing schedules, NCI-N87-luc xenografts; assay type: in vivo, nude mice; conditions: Day 22; for T/C ratio of the mean total flux: 21 days
Protocol: The intracranial antitumor effect of Compound (1) with various dosing schedules ((i) QD, (ii) intermittent, and (iii) 4 days-on/3 days-off) was evaluated using Compound (1) in nude mice intracranially implanted with NCI-N87-luc cells, which were engineered to stably express the luciferase gene using the HER2-overexpressing NCI-N87 human gastric carcinoma cell line.
Compound (1) dosing suspensions using 0.5% weight per volume (w/v) hydroxypropyl methylcellulose (HPMC) as vehicle were prepared with Compound (1) at 2 dose levels (25.0 or 50.0 mg/kg/day) and orally administered with various dosing schedules ((i) QD, (ii) intermittent, and (iii) 4 days-on/3 days-off) for 21 days. The (i) QD dosing schedule in this example was dosing every day on day 1 to day 21. The (ii) intermittent dosing schedule in this example used sequential 7-day periods that each comprise alternating 4 days-on and 3 days-off. That is, this schedule involved dosing on days 1, 3, 5, 7, 8, 10, 12, 14, 15, 17, 19, and 21. The (iii) 4 days-on/3 days-off dosing schedule was dosing on days 1, 2, 3, 4, 8, 9, 10, 11, 15, 16, 17, and 18. The control group received 0.5% w/v HPMC solution orally once daily for 21 days.

[5] = target: HER2 A775_G776insYVMA (Homo sapiens, UniProt P04626, INS775YVMA); assay: in vitro kinase assay (enzyme assay); assay type: biochemical; conditions: human recombinant enzyme; read-out: IC50 (Mean ± SD)
Protocol: To investigate the inhibitory effect of Compound (1) on HER2 enzyme activity, the mean±standard deviation (SD) of half-maximal inhibitory concentration (IC50) values of Compound (1) against human recombinant enzymes of HER2 and its mutants were determined by in vitro kinase assays (Table 1).

[6] = target: T2, human BCRP (Homo sapiens, UniProt Q9UNQ0); assay: substrate susceptibility on human BCRP, bidirectional transcellular transport, BCRP/MDCK II cells; assay type: in vitro ADME; design: expressed in transfected cells; host or cells: MDCK II (canine kidney) cells expressing human BCRP; parent MDCK II as control
T2 sequence (Q9UNQ0 1-655): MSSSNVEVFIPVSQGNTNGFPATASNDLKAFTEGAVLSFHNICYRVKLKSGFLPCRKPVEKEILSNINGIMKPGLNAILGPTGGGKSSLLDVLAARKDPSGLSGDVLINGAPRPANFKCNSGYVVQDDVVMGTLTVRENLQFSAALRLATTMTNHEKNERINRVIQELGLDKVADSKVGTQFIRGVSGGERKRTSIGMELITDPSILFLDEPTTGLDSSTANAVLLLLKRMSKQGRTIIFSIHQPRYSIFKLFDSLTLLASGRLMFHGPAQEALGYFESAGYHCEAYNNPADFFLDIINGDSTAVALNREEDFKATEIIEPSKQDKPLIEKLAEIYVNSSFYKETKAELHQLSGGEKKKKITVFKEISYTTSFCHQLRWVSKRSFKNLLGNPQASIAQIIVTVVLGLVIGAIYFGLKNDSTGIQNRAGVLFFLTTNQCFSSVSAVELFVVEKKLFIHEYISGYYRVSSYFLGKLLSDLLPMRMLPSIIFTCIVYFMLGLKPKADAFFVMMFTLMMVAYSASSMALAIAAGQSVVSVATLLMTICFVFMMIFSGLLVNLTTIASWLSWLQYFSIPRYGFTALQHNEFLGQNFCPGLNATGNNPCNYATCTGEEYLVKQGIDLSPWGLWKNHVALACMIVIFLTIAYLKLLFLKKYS
Protocol: Substrate susceptibility of Compound (1) on human BCRP. Time-dependence of the bidirectional transcellular transport of 0.3, 0.5, 1, 3, and 30 μmol/L Compound (1) across human BCRP/Madin-Darby canine kidney II (MDCK II) cells and parent/MDCK II cells was analyzed.

[7] = (ii) intermittent 50.0 mg/kg/day
[8] = (iii) 4 days-on/3 days-off 50.0 mg/kg/day

T1 sequence (P08183 whole entry): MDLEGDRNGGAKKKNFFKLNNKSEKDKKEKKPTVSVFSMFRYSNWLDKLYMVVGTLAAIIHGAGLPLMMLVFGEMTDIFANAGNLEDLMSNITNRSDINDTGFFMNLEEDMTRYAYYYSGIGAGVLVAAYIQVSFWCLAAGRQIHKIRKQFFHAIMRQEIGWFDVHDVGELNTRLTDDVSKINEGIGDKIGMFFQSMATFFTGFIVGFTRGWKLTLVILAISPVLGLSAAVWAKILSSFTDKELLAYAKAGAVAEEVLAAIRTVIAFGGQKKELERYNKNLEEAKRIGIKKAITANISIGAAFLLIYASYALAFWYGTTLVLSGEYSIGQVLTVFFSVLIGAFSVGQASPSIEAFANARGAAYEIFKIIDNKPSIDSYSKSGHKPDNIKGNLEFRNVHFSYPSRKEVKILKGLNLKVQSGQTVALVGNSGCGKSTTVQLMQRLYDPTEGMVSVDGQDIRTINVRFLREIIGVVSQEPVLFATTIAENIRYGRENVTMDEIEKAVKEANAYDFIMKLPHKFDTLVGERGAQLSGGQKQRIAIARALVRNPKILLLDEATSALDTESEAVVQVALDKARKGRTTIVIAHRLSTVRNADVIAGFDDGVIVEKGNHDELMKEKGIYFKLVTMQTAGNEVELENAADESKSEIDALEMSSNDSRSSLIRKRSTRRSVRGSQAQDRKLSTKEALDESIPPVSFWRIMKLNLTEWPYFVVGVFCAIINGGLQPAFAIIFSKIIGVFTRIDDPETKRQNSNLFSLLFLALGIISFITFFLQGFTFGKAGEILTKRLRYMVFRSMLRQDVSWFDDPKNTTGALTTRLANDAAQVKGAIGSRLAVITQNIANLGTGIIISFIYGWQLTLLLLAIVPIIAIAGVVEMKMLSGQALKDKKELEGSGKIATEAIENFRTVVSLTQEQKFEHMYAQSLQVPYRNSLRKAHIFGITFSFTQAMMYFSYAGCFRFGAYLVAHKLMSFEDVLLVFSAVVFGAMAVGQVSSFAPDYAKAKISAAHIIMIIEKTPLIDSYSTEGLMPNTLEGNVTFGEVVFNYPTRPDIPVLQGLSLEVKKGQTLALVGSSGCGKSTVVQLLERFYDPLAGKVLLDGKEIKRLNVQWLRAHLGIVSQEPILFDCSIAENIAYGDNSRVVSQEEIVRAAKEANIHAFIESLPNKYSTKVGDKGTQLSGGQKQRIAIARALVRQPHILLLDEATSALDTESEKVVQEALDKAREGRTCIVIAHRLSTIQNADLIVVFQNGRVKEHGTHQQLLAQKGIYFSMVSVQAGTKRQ
HER2 A775_G776insYVMA, sequence (P04626 with tags, fused parts or gaps INS775YVMA limits assumed): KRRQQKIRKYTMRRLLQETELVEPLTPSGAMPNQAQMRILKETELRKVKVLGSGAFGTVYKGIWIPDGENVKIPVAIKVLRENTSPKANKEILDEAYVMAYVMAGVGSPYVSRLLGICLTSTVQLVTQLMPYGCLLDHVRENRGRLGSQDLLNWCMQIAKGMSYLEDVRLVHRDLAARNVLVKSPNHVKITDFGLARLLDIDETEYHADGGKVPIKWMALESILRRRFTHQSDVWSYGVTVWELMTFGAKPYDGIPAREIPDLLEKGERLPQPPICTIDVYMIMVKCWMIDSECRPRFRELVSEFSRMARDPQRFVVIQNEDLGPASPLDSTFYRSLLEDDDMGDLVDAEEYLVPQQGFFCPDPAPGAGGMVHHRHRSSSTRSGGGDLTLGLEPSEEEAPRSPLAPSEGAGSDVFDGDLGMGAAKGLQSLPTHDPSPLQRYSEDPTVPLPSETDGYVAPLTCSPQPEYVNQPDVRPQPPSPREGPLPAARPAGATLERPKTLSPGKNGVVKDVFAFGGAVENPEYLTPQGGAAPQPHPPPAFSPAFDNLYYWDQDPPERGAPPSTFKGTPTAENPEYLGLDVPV

C=CC(=O)N1C[C@H](n2c(C#CC3CC3)c(C(=O)N[C@H](C)c3ccccc3)c3c(N)ncnc32)C[C@@H]1C [Compound (1), 7-((3R,5S)-1-acryloyl-5-methylpyrrolidin-3-yl)-4-amino-6-(cyclopropylethynyl)-N—((R)-1-phenylethyl)-7H-pyrrolo[2,3-d]pyrimidine-5-carboxamide]
IC50 [1]: 3480 nM | activity at 3 h, 0.01 μmol/L ([1]; human): 112% | activity at 3 h, 0.1 μmol/L ([1]; human): 110% | activity at 3 h, 1 μmol/L ([1]; human): 135% | activity at 3 h, 5 μmol/L ([1]; human): 45% | activity at 3 h, 10 μmol/L ([1]; human): 7% | activity at 3 h, 100 μmol/L ([1]; human): 1% | T/C ratio of the mean tumor volumes [2]: 7.3% | GI50 [3]: 1.2 ± 0.3 nM | T/C ratio of the mean total flux [4, 7]: 3.8% | mean body weight change [4, 7]: −1.0% | T/C ratio of the mean total flux [4, 8]: 8.9% | mean body weight change [4, 8]: 0.3% | IC50 [5]: 1 ± 0.2 nM | concentration at which transport via human BCRP is saturable [6]: > 1000 nM | net flux ratio ([6]; 0.3 μmol/L Compound (1), 4 hours): 1.5±0.6 | net flux ratio ([6]; 0.5 μmol/L Compound (1) with 10 μmol/L Ko143, 3 hours): 1.2±0.2 | net flux ratio ([6]; 0.5 μmol/L Compound (1) with 10 μmol/L Ko143, 4 hours): 1.2±0.2 | net flux ratio ([6]; 0.5 μmol/L Compound (1), 2 hours): 1.9±0.9 | net flux ratio ([6]; 0.5 μmol/L Compound (1), 3 hours): 3.0±0.9 | net flux ratio ([6]; 0.5 μmol/L Compound (1), 4 hours): 2.7±0.8 | net flux ratio ([6]; 1 μmol/L Compound (1) with 10 μmol/L Ko143, 4 hours): 1.4±0.2 | net flux ratio ([6]; 1 μmol/L Compound (1), 2 hours): 2.3±0.7 | net flux ratio ([6]; 1 μmol/L Compound (1), 3 hours): 1.8±0.4 | net flux ratio ([6]; 1 μmol/L Compound (1), 4 hours): 2.2±0.7 | net flux ratio ([6]; 3 μmol/L Compound (1), 2 hours): 2.0±0.3 | net flux ratio ([6]; 3 μmol/L Compound (1), 3 hours): 1.6±0.3 | net flux ratio ([6]; 3 μmol/L Compound (1), 4 hours): 1.5±0.2 | net flux ratio ([6]; 30 μmol/L Compound (1), 2 hours): 1.4±0.3 | net flux ratio ([6]; 30 μmol/L Compound (1), 3 hours): 1.1±0.1 | net flux ratio ([6]; 30 μmol/L Compound (1), 4 hours): 1.2±0.1 | substrate susceptibility on human BCRP ([6]; criterion net flux ratio exceeding 2): substrate of BCRP
